The target of this assay is Tyrosine-protein kinase JAK2 (Homo sapiens, UniProt O60674). Put plainly: JAK2 Assay: JAK2 (5-20 mU diluted in 50 mM Tris pH 7.5, 0.1 mM EGTA, 0.05% 0-mercaptoethanol, 1 mg/ml BSA) is assayed against PDKtide ([…]-[…]) in a final volume of 25.5 μl containing 50 mM Tris pH 7.5, 0.1 mM EGTA, 0.05% 0-mercaptoethanol, 100 μM substrate peptide, 10 mM magnesium acetate and 0.005 mM [33P-γ-ATP] (50-1000 cpm/pmole) and incubated for 30 min at room temperature Assays are stopped by addition of 5 μl of 0.5 M (3%) orthophosphoric acid and then harvested onto P81 Unifilter plates with a wash buffer of 50 mM orthophosphoric acid.
Tyrosine-protein kinase JAK2, sequence (O60674 whole entry): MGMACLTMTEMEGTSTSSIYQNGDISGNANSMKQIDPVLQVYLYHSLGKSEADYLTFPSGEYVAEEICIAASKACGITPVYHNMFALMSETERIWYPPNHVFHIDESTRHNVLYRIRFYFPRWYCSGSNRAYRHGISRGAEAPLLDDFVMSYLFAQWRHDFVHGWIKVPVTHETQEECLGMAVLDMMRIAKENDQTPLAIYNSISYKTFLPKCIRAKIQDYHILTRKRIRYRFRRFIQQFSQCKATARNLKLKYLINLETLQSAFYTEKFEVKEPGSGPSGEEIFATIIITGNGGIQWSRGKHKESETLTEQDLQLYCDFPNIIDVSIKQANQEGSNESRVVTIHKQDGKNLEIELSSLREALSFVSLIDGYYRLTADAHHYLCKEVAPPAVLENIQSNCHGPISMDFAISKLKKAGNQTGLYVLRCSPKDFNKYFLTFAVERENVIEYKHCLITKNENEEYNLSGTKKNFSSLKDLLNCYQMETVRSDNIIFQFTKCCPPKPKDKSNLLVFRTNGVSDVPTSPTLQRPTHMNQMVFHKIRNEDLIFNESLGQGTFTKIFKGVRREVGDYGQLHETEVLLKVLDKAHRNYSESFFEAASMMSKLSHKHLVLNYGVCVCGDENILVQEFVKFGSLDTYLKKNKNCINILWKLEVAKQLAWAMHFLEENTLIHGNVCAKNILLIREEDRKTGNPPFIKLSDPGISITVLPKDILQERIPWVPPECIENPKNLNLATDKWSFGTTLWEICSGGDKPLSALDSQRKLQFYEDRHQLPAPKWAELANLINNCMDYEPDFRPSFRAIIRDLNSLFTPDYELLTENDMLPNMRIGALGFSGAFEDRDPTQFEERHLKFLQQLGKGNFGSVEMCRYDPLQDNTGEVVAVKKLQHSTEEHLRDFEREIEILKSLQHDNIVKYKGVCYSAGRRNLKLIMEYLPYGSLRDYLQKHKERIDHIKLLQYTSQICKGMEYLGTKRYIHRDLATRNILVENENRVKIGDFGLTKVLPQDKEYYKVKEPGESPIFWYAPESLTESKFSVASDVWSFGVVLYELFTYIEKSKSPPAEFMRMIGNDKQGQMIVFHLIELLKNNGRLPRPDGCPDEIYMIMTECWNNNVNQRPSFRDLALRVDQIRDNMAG
Consider `CC(C)N1CCC(N2Cc3c(cnn3C)-c3n[nH]c4ccnc2c34)CC1`, for which the IC50 came to 4500 nM.
Take `Cn1ncc2c1CN(C1CCOCC1)c1nccc3[nH]nc-2c13`: the IC50 was found to be 920 nM.
Consider `Fc1ccc2c(c1)-c1n[nH]c3ccnc(c13)N(C1CCOCC1)C2`, for which inhibition was half-maximal at 900 nM (IC50).
The result for `CCn1ncc2c1CN(C1CCN(C(C)C)CC1)c1nccc3[nH]nc-2c13` reads 5400 nM.
As to `CCc1cc2c(cn1)CN(C1CCOCC1)c1nccc3[nH]nc-2c13`, the IC50 was found to be 1700 nM.
Consider `CCn1ncc2c1CN(C1CCOCC1)c1nccc3[nH]nc-2c13`, for which the midpoint of inhibition, the IC50, lay at 1500 nM.
`Cc1cc2c(cn1)CN(C1CCOCC1)c1nccc3[nH]nc-2c13` yielded an IC50 of 890 nM.
In the case of `CC(C)n1ncc2c1CN(C1CCOCC1)c1nccc3[nH]nc-2c13`, the IC50 was 2100 nM.
`c1cc2[nH]nc3c2c(n1)N(C1CCCC1)CCC3` displayed an IC50 of 6600 nM.

Usually IC50 stands for the concentration that inhibits the measured activity by half.

Source of the values: ChEMBL document CHEMBL5728268, “Substituted tricyclic heterocyclic compounds and use thereof” (2021).
